Data reported in ChEMBL document CHEMBL4417631, “Oral peptide inhibitors of interleukin-23 receptor and their use to treat inflammatory bowel diseases” (2017).
Where a SMILES comes first, the peptide text is derived from it.

Molecular target: T1, Interleukin-23 receptor (Homo sapiens, UniProt Q5VWK5)
T1 sequence (Q5VWK5 whole entry): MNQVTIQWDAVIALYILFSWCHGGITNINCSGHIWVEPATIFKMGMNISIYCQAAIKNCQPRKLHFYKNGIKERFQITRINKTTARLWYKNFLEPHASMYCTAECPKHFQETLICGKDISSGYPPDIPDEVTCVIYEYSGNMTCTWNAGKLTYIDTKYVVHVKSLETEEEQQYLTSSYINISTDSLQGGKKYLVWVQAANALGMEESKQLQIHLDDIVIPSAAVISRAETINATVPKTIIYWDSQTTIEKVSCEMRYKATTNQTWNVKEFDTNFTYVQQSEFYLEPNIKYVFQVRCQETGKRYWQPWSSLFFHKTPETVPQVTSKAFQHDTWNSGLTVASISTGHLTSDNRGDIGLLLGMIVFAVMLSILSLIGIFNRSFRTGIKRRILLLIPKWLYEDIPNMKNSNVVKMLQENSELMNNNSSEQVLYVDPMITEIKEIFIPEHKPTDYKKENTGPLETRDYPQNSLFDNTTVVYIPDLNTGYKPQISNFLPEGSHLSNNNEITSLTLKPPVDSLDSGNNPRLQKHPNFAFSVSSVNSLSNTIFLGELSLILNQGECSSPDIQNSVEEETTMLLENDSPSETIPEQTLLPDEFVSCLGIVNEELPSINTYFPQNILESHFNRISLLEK
Assay: Inhibition of interleukin-23 binding to human interleukin-23 receptor incubated for 2 hrs by competitive binding ELISA

SMILES | IC50
CC(C)[C@H](NC(=O)[C@H](Cc1c[nH]c2ccccc12)NC(=O)[C@H](CC(=O)O)NC(=O)[C@H](C)NC(=O)[C@H](CS)NC(=O)[C@H](CO)NC(=O)CCN)C(=O)N[C@@H](CS)C(=O)N[C@@H](Cc1ccc(O)cc1)C(=O)N[C@@H](Cc1c[nH]c2ccccc12)C(=O)N[C@@H](Cc1cnc[nH]1)C(=O)N[C@H](C(=O)N[C@@H](Cc1ccccc1)C(=O)NCC(=O)O)[C@@H](C)O | > 1 µM
CC(=O)N[C@@H](CS)C(=O)N[C@@H](C)C(=O)N[C@@H](CC(=O)O)C(=O)N[C@@H](Cc1c[nH]c2ccccc12)C(=O)N[C@H](C(=O)N[C@@H](CS)C(=O)N[C@@H](Cc1ccc(O)cc1)C(=O)N[C@@H](Cc1c[nH]c2ccccc12)C(=O)N(C)[C@@H](Cc1cnc[nH]1)C(=O)N[C@H](C(=O)N[C@@H](Cc1ccccc1)C(=O)NCC(=O)NCCOCC(=O)N[C@H](CCCCN)C(N)=O)[C@@H](C)O)C(C)C | > 1 µM
CC(=O)NCCCC[C@H](NC(=O)[C@](C)(CCCCN)NC(=O)[C@H](Cc1ccc2ccccc2c1)NC(=O)[C@H](Cc1cc(F)cc(F)c1)NC(=O)[C@@H](NC(=O)[C@H](CCC(N)=O)NC(=O)[C@H](Cc1c[nH]c2ccccc12)NC(=O)[C@@H](NC(=O)[C@H](CCC(N)=O)NC(=O)[C@@H](NC(C)=O)C(C)(C)S)[C@@H](C)O)C(C)(C)S)C(=O)N[C@@H](CC(N)=O)C(=O)NCC(N)=O | 0.1 to 1 µM
CC(=O)N[C@@H](CS)C(=O)N[C@@H](CCC(N)=O)C(=O)N[C@H](C(=O)N[C@@H](Cc1c[nH]c2ccccc12)C(=O)N[C@@H](CCC(N)=O)C(=O)N[C@@H](CS)C(=O)N[C@@H](Cc1ccc(O)cc1)C(=O)N[C@@](C)(Cc1c[nH]c2ccccc12)C(=O)N[C@@H](CCCNC(=N)N)C(=O)N[C@H](C(=O)N[C@@H](CC(N)=O)C(=O)NCC(=O)NCCC(=O)N[C@H](CCCCN)C(N)=O)C(C)C)[C@@H](C)O | 6 µM
CC(=O)N[C@@H](CS)C(=O)N[C@@H](CCCNC(=N)N)C(=O)N[C@H](C(=O)N[C@@H](Cc1c[nH]c2ccccc12)C(=O)N[C@@H](CCC(N)=O)C(=O)N[C@@H](CS)C(N)=O)[C@@H](C)O (Ac-CRTWQC-NH2) | > 30 µM
CC(=O)N[C@@H](CS)C(=O)N[C@@H](C)C(=O)N[C@@H](CC(=O)O)C(=O)N[C@@H](Cc1c[nH]c2ccccc12)C(=O)N[C@H](C(=O)N[C@@H](CS)C(=O)N[C@@H](Cc1ccc(O)cc1)C(=O)N[C@@H](Cc1cccc2ccccc12)C(=O)N[C@@H](Cc1ccccc1)C(=O)N[C@H](C(=O)N[C@@H](Cc1ccccc1)C(=O)NCC(N)=O)[C@@H](C)O)C(C)C | > 1 µM
CC(=O)N[C@@H](CS)C(=O)N[C@@H](CCC(N)=O)C(=O)N[C@H](C(=O)N[C@@H](Cc1c[nH]c2ccccc12)C(=O)N[C@@H](CCC(N)=O)C(=O)N[C@@H](CS)C(=O)N[C@@H](Cc1ccc(O)cc1)C(=O)N[C@@H](Cc1c[nH]c2ccccc12)C(=O)N(C)[C@@H](CCC(=O)O)C(=O)N[C@@H](CC(N)=O)C(=O)NCC(=O)NCCOCC(=O)N[C@H](CCCCN)C(=O)O)[C@@H](C)O | > 1 µM
CC(=O)N[C@@H](CS)C(=O)N[C@@H](C)C(=O)N[C@@H](CC(=O)O)C(=O)N[C@@H](Cc1c[nH]c2ccccc12)C(=O)N[C@H](C(=O)N[C@@H](CS)C(=O)N[C@@H](Cc1ccc(O)cc1)C(=O)N[C@@H](Cc1cccc2ccccc12)C(=O)N[C@@H](Cc1cnc[nH]1)C(=O)NCCC(=O)N[C@@H](Cc1ccccc1)C(=O)NCC(N)=O)C(C)C | > 1 µM
CC(=O)N[C@H]1CCSC[C@@H](C(=O)N[C@@H](Cc2ccc(OCCN)cc2)C(=O)N[C@@H](Cc2ccc3ccccc3c2)C(=O)N[C@@](C)(CCCCN)C(=O)N[C@@H](CCC(=O)O)C(=O)N[C@@H](CC(N)=O)C(=O)NCC(N)=O)NC(=O)[C@H](CCC(N)=O)NC(=O)[C@@H]2Cc3c([nH]c4ccccc34)CN2C(=O)[C@H]([C@@H](C)O)NC(=O)[C@H](CCC(N)=O)NC1=O | 0.1 to 1 µM
CC(=O)NCCCC[C@H](NC(=O)[C@](C)(CCCCN)NC(=O)[C@H](Cc1ccc2ccccc2c1)NC(=O)[C@H](Cc1ccc(O)cc1)NC(=O)[C@@H]1CSCC[C@H](NC(C)=O)C(=O)N[C@@H](CCC(N)=O)C(=O)N[C@@H]([C@@H](C)O)C(=O)N[C@@H](Cc2c[nH]c3ccccc23)C(=O)N[C@@H](CCC(N)=O)C(=O)N1)C(=O)N[C@@H](CC(N)=O)C(=O)NCC(=O)NCC(=O)N[C@@H](CCC(=O)O)C(N)=O | 0.025 to 0.1 µM
CC(=O)NCC(=O)N[C@H](CC(N)=O)C(=O)N[C@H](CCC(=O)O)C(=O)N[C@H](CC(C)C)C(=O)N[C@H](Cc1c[nH]c2ccccc12)C(=O)N[C@H](Cc1ccc(O)cc1)C(=O)N[C@H](CS)C(=O)N[C@H](CCC(N)=O)C(=O)N[C@H](Cc1c[nH]c2ccccc12)C(=O)N[C@@H](C(=O)N[C@H](CCC(N)=O)C(=O)N[C@H](CS)C(N)=O)[C@H](C)O | > 30 µM
CC(=O)N[C@@H](CS)C(=O)N[C@@H](C)C(=O)N[C@@H](CC(=O)O)C(=O)N[C@@H](Cc1c[nH]c2ccccc12)C(=O)N[C@H](C(=O)N[C@@H](CS)C(=O)N[C@@H](Cc1ccc(O)cc1)C(=O)N[C@@H](Cc1c[nH]c2ccccc12)C(=O)N[C@@H](Cc1cnc[nH]1)C(=O)N[C@H](C(=O)N[C@@H](CCCCN)C(=O)NCC(=O)O)[C@@H](C)O)C(C)C | > 1 µM
CC(=O)N[C@@H](CC(=O)O)C(=O)N[C@H](C(=O)N1CCC[C@H]1C(=O)N[C@@H](CCCNC(=N)N)C(=O)N[C@@H](CS)C(=O)N[C@@H](CCCNC(=N)N)C(=O)N[C@H](C(=O)N[C@@H](Cc1c[nH]c2ccccc12)C(=O)N[C@@H](CCC(=O)O)C(=O)N[C@@H](CS)C(=O)N[C@@H](Cc1ccc(O)cc1)C(=O)N[C@@H](Cc1c[nH]c2ccccc12)C(=O)N[C@@H](Cc1cnc[nH]1)C(=O)N[C@H](C(=O)N[C@@H](Cc1ccccc1)C(=O)NCC(N)=O)[C@@H](C)O)[C@@H](C)O)[C@@H](C)O | 0.5 to 1 µM
CC(C)[C@H](NC(=O)[C@H](Cc1ccc(-c2ccccc2)cc1)NC(=O)[C@H](CC(=O)O)NC(=O)[C@H](C)NC(=O)[C@@H](N)CS)C(=O)N[C@@H](CS)C(=O)N[C@@H](Cc1ccc(O)cc1)C(=O)N[C@@H](Cc1c[nH]c2ccccc12)C(=O)N[C@@H](Cc1cnc[nH]1)C(=O)N[C@H](C(=O)N[C@@H](Cc1ccccc1)C(=O)NCC(N)=O)[C@@H](C)O | > 1 µM
CC(=O)N[C@@H](CS)C(=O)N[C@@H](CCC(N)=O)C(=O)N[C@H](C(=O)N[C@@H](Cc1c[nH]c2ccccc12)C(=O)N[C@@H](CCC(N)=O)C(=O)N[C@@H](CS)C(=O)N[C@@H](Cc1ccc(O)cc1)C(=O)N[C@@H](Cc1c[nH]c2ccccc12)C(=O)N[C@@H](CCCNC(=N)N)C(=O)N[C@@H](CCCNC(=N)N)C(=O)N[C@@H](CC(N)=O)C(=O)NCC(=O)NCCOCC(=O)N[C@H](CCCCN)C(N)=O)[C@@H](C)O | < 0.5 µM
CC(=O)N[C@@H](CS)C(=O)N[C@@H](C)C(=O)N[C@@H](CC(=O)O)C(=O)N[C@@H](Cc1c[nH]c2ccccc12)C(=O)N[C@H](C(=O)N[C@@H](CS)C(=O)N[C@@H](Cc1ccc(O)cc1)C(=O)N[C@@H](Cc1c[nH]c2ccccc12)C(=O)N[C@@H](CCCCN)C(=O)N[C@H](C(=O)N[C@@H](Cc1ccccc1)C(=O)NCC(=O)O)[C@@H](C)O)C(C)C | > 1 µM
CC(=O)N[C@H]1CCSC[C@@H](C(=O)N[C@@H](Cc2ccc(Cl)c(Cl)c2)C(=O)N[C@@H](Cc2ccc3ccccc3c2)C(=O)NC(C)(C)C(=O)N[C@@H](CCC(=O)O)C(=O)N[C@@H](CC(N)=O)C(=O)NCC(N)=O)NC(=O)[C@H](CCC(N)=O)NC(=O)[C@H](Cc2c[nH]c3ccccc23)NC(=O)[C@H]([C@@H](C)O)NC(=O)[C@H](CCC(N)=O)NC1=O | 0.1 to 1 µM
CC(=O)N[C@@H](CCCNC(=N)N)C(=O)N[C@@H](CCC(=O)O)C(=O)NCC(=O)N[C@H](C(=O)N[C@@H](CS)C(=O)N[C@@H](CO)C(=O)N[C@H](C(=O)N[C@@H](Cc1c[nH]c2ccccc12)C(=O)N[C@@H](CCCCN)C(=O)N[C@@H](CS)C(=O)N[C@@H](Cc1ccc(O)cc1)C(=O)N[C@@H](Cc1c[nH]c2ccccc12)C(=O)N[C@@H](Cc1cnc[nH]1)C(=O)N[C@H](C(=O)N[C@@H](Cc1ccccc1)C(=O)NCC(N)=O)[C@@H](C)O)[C@@H](C)O)[C@@H](C)O (Ac-REGTCSTWKCYWHTFG-NH2) | 0.5 to 1 µM
C[C@H](N)C(=O)N[C@@H](C)C(=O)N[C@@H](CC(=O)O)C(=O)N[C@@H](Cc1c[nH]c2ccccc12)C(=O)N[C@@H](CS)C(=O)N[C@@H](C)C(=O)N[C@@H](Cc1ccc(O)cc1)C(=O)N[C@@H](Cc1c[nH]c2ccccc12)C(=O)N[C@@H](CS)C(=O)N[C@H](C(=O)N[C@@H](Cc1ccccc1)C(=O)NCC(N)=O)[C@@H](C)O (H-AADWCAYWCTFG-NH2) | > 1 µM
CC(=O)N[C@@H](CS)C(=O)N[C@@H](C)C(=O)N[C@@H](CC(=O)O)C(=O)N[C@@H](Cc1c[nH]c2ccccc12)C(=O)N[C@H](C(=O)N[C@@H](CS)C(=O)N[C@@H](Cc1ccc(O)cc1)C(=O)N[C@@H](Cc1cc(F)cc(F)c1)C(=O)N[C@@H](CCCN)C(=O)N[C@@H](CN)C(=O)N[C@@H](Cc1ccccc1)C(=O)NCC(=O)NCCOCC(=O)N[C@H](CCCCN)C(N)=O)C(C)C | 6 µM
CC(C)[C@H](NC(=O)[C@H](Cc1c[nH]c2ccccc12)NC(=O)[C@H](CC(=O)O)NC(=O)[C@H](C)NC(=O)[C@@H](N)CS)C(=O)N[C@@H](CS)C(=O)N[C@@H](Cc1ccc(O)cc1)C(=O)N[C@@H](Cc1c[nH]c2ccccc12)C(=O)N[C@@H](Cc1cnc[nH]1)C(=O)N[C@H](C(=O)N[C@@H](Cc1ccccc1)C(N)=O)[C@@H](C)O | > 1 µM
